These antisense oligonucleotides have a phosphorothioate backbone; sugars and methylation of C are not fully specified.
Note: test concentration or dose not given here.

One data set has as its target FADD. Conditions: ASO.
AAGATACGAGATCCCGCT returned a remaining target (mRNA or protein) (fraction of control) of 0.64.

The sequence AAGGAAGATTTAGAGAGT came in with a remaining target (mRNA or protein) (fraction of control) of 0.72.

As for ACACCGAGTGCAGCAGCA, the remaining target (mRNA or protein) (fraction of control) was found to be 0.82.

Regarding ACCAGGAACGGGTCCATG, the remaining target (mRNA or protein) (fraction of control) came to 0.92.

AGTTGTAAAGCTGTGTTT returned a remaining target (mRNA or protein) (fraction of control) of 0.57.

In the case of ATGGGCTCTGGTGAAGGA, the remaining target (mRNA or protein) (fraction of control) is at least 1.

For CACACAGGTCTTCTTCCC, the remaining target (mRNA or protein) (fraction of control) was at least 1.

Take CACCACAGCACCCCGCCT: the remaining target (mRNA or protein) (fraction of control) worked out at 0.95.

CATGGAGAAGAGGTCTAG returned a remaining target (mRNA or protein) (fraction of control) of 0.71.

As to CCAGCGGCCCAAGGATTC, the remaining target (mRNA or protein) (fraction of control) is at least 1.

CCATCAGGACGCTTCGGA registered a remaining target (mRNA or protein) (fraction of control) of 0.93.

Sequence CCCCACATTATCACATAT registered a remaining target (mRNA or protein) (fraction of control) of 0.9.

In turn, CCCCGCCTCGAAGTCGTC gave a remaining target (mRNA or protein) (fraction of control) of 0.82.

In the case of CCGGTGGCCTCCAAGGAA, the remaining target (mRNA or protein) (fraction of control) was at least 1.

Take CCTGCTGGGTCTTCACAG: the remaining target (mRNA or protein) (fraction of control) is at least 1.

With CGCAGCTTGAGTTCAGAA, the remaining target (mRNA or protein) (fraction of control) stood at 0.65.

Take CGCGCCCGAGGCATAGGA: the remaining target (mRNA or protein) (fraction of control) is 0.75.

Sequence CTCCAGCTTGCGCTTGAC registered a remaining target (mRNA or protein) (fraction of control) of 0.78.

CTCCAGGTCGTTCTGCTC displayed a remaining target (mRNA or protein) (fraction of control) of 0.65.

CTCCCGCACACGCTCTGT: the remaining target (mRNA or protein) (fraction of control) was at least 1.

CTCCGGTGCCTGATTCAC yielded a remaining target (mRNA or protein) (fraction of control) of 0.94.

In turn, CTGTGTTCTTCCAGATTC came in with a remaining target (mRNA or protein) (fraction of control) of at least 1.

For CTTCGCTCCGATTCCTGG, the remaining target (mRNA or protein) (fraction of control) was at least 1.

GAACCAAAGTCCAGGCTG yielded a remaining target (mRNA or protein) (fraction of control) of at least 1.

Turning to GACAGGCTGGACGACACC, the remaining target (mRNA or protein) (fraction of control) was 0.62.

With GATGCTGTCGATCTTGGT, the remaining target (mRNA or protein) (fraction of control) was found to be 0.91.

GCCAGCCTTCTCCAATCT yielded a remaining target (mRNA or protein) (fraction of control) of 0.62.

On to GCCCCTACTTAGCAGTCT, for which the remaining target (mRNA or protein) (fraction of control) is 0.65.

The sequence GCTCGCTGCTCGACAGGC yielded a remaining target (mRNA or protein) (fraction of control) of 0.74.

On to GCTGGGCTACCTTCCTGG, for which the remaining target (mRNA or protein) (fraction of control) is at least 1.

With GGACCACGGCCAACCAGG, the remaining target (mRNA or protein) (fraction of control) is 0.58.

Regarding GGCCCCACTCCTGTTCTG, the remaining target (mRNA or protein) (fraction of control) amounted to 0.52.

The target in another data set is MAP2K4. Conditions: ASO.
As to AAATTTGGCTGAGCACATCG, the remaining target (mRNA or protein) (fraction of control) was 0.53.

In the case of AACACCAATCTTATTGCACA, the remaining target (mRNA or protein) (fraction of control) is 0.98.

Sequence AAGGATGCACGTTCTAGGTG registered a remaining target (mRNA or protein) (fraction of control) of 0.55.

Take AATCGACATACATGGGAGAG: the remaining target (mRNA or protein) (fraction of control) was found to be 0.55.

ACCACTCACAGTGCTGCTTC showed a remaining target (mRNA or protein) (fraction of control) of 0.68.

AGACCTGGACCAGTGATGGC: the remaining target (mRNA or protein) (fraction of control) was determined as 0.6.

Take ATATTTCCACTTCTGTCCAG: the remaining target (mRNA or protein) (fraction of control) stood at 0.67.

Regarding ATGCTGCTGACGGCCGGGTG, the remaining target (mRNA or protein) (fraction of control) is 0.76.

ATGGAGGATGATGGCTTGCT registered a remaining target (mRNA or protein) (fraction of control) of 0.83.

ATGGGAGAGCTGGGAGTAGC returned a remaining target (mRNA or protein) (fraction of control) of at least 1.

CAACTTCAGTGCTTTGCGTT yielded a remaining target (mRNA or protein) (fraction of control) of 0.42.

Turning to CACACAATAGAACGGTCAGA, the remaining target (mRNA or protein) (fraction of control) was determined as 0.9.

For CACCTTCTTTGACAAGTGGC, the remaining target (mRNA or protein) (fraction of control) was 0.42.

For the sequence CACTACTCCGCATTACTACA, the remaining target (mRNA or protein) (fraction of control) was 0.56.

Regarding CAGTCTCTCTATGTGTGGGT, the remaining target (mRNA or protein) (fraction of control) is 0.69.

GAAATATATAGCTGCTACAA returned a remaining target (mRNA or protein) (fraction of control) of at least 1.

The sequence GAGATAATCACTTTTGAATT registered a remaining target (mRNA or protein) (fraction of control) of at least 1.

GAGCCGCCGCCGCCGCTCGG gave a remaining target (mRNA or protein) (fraction of control) of at least 1.

GAGTAAACCTTGCTGTAGAT registered a remaining target (mRNA or protein) (fraction of control) of 0.73.

Regarding GATATCAATCGACATACATG, the remaining target (mRNA or protein) (fraction of control) was determined as 0.83.

For GATCCTCATCTGGTCCAATG, the remaining target (mRNA or protein) (fraction of control) was 0.6.

With GATTTTGCCTAAAATTTCTT, the remaining target (mRNA or protein) (fraction of control) was at least 1.

For GCCTCTTGTAACAGTGCTGA, the remaining target (mRNA or protein) (fraction of control) came to 0.47.

As to GCTCGGGCTCGGAGCCGCCA, the remaining target (mRNA or protein) (fraction of control) came to 0.47.

On to GCTGTGCAAGCTCTTCTCAC, for which the remaining target (mRNA or protein) (fraction of control) stood at 0.63.

For GGAGACACAGCAATACGTGC, the remaining target (mRNA or protein) (fraction of control) came out at 0.61.

For the sequence GGAGCCGCCATTGTTGGGAG, the remaining target (mRNA or protein) (fraction of control) was 0.91.

These data come from the OligoGym collection.
